Data on one compound can be found in patent publication US20160193179A1, “Treatment of Cardiovascular Risk in Diabetic Patients” (EVOLVA SA, priority 2012, published 2016).

Data set [1] deals with COX-2, IL-6, IL-8, ICAM-1, VCAM-1, PTX3, MCP-1 mRNA expression in HUVEC. The experiment in a line: Real time RT-PCR of TNFα-induced mRNA expression in HUVEC. It counts as cell-based, human. As to conditions: for ICAM-1 mRNA expression induced by TNFα / PTX3 mRNA expression induced by TNFα: 1 ng/ml TNFα 6 h. How it is done: FIGS. 1 and 2A show the effects of Compound 3 on mRNA expression of genes of interest encoding inflammatory or oxidative markers. mRNA expression is evaluated by quantitative RT-PCR in HUVEC after 6 h of TNFα stimulation. Data are means±S.D. (n=3). Statistical analysis: one way ANOVA followed by Bonferroni, Versus CTL NS p>0.05, * p<0.05, ** p<0.01, *** p<0.001; Versus TNFα $ p<0.05, $$ p<0.01, $$$ p<0.001.
HUVEC are seeded at 67,500 cells/flask in gelatin-coated T25 in EGM. After 4 days, cell medium is replaced by EBM containing or not containing Compound 3 at different concentrations. After 1 h of preincubation, 1 ng/ml TNFα is added or is not into the T25 flasks. 6 h after, cell medium is discarded and cells are washed twice with PBS. Total RNA extraction is performed by using QIAGEN RNeasy mini Kit according to the protocol provided by the manufacturer (QIAGEN). RNA concentration for each sample is determined by Nanodrop Spectrophotometer ND-100 (ISOGEN, Life Science). Reverse transcription was performed using Transcriptor First Strand cDNA Synthesis Kit Roche (Roche Applied Science). Transcript levels are determined by quantitative reverse transcription polymerase chain reaction (qRT-PCR). cDNA obtained by reverse transcription of total RNA are diluted 100 times and 5 μl are mixed with 12.5 μl of Fast start Universal SYBRGreen Master (Roche), 2.5 μl MilliQ water, 2.5 μl of diluted primer forward and 2.5 μl of diluted primer reverse to have an optimal and final concentration of 300 nM or 900 nM. PCRs are carried out in a real-time PCR cycler (Applied Biosystems 7900HT Fast Real-time PCR System): a hot start at 95° C. for 5 min is followed by 40 cycles at 95° C. for 15 s and 65° C. for 1 min. Samples are compared using the relative cycle threshold (Ct) method. To normalize the load of cDNA for each sample, RPL13 is used as the endogenous standard. Primer sequences are listed below.
List of primers used in real time RT-PCR.

The subject of the next data set is PARP cleavage in HUVEC. The experiment in a line: PARP-1 cleavage (apoptosis) by western blot in HUVEC. It counts as cell-based, human. How it is done: FIGS. 3C and 3D show the effect of Compound 3 on PARP cleavage induced by TNFα in HUVEC after 6 h of incubation. C) Total protein extracts are recovered and analysed by western blot. β-actin serves as the loading control. D) Quantification of optical density of each band and expression of the ratio between the optical density of PARP cleavage and the total of PARP.
HUVEC are seeded at 187,500 cells/flask in gelatin-coated T75 in EGM. After 4 days, cell medium is replaced by EBM containing or not containing Compound 3 at different concentrations. After 1 h of preincubation, 1 ng/ml TNFα is added or is not added into the T75 flasks. 6 h after, cell media are collected and centrifuged at 500 g for 5 min to pellet and pool floating cells with adherent cells. Adherent cells are washed twice with cold PBS and are collected in 1.5 ml of PBS. Harvested cells are then centrifuged at 500 g for 5 min at 4° C. […] Protein concentration is measured using Pierce method (Pierce 660 nm protein assay, Thermoscientific, USA) with the Ionic Detergent Compatibility Reagent (Thermoscientific, USA). […] Antibody binding was analysed with the scanner Odyssey Image System (Li-COR, Biosciences, USA) and Odyssey V3.0 software. Optical density of each band is also determined by using the software.

For data set [2], the system named is human coronary artery smooth muscle cells. The data set can be described thus: Human coronary artery smooth muscle cell proliferation (WST-1). It counts as cell-based. The conditions noted are these: growth factor media; Compound 3 50 nM, 500 nM, 5 μM added 1 h before U46619; 48 h; WST-1. The method, then:
Human coronary artery SMC is cultured in SmGM2 kit medium. At 80% confluence, the SMCs are trypsinized and resuspended in either DMEM supplemented with 2% FCS (“low serum media”), or in SmGM2 kit medium containing 5% FCS, 2 ng/ml FGF, 0.5 ng/ml EGF, 5 μg/ml insulin (“growth factor media”). Subsequently, 5000 cells in 200 μL are added to each well in a 96-well plate and left to adhere overnight. Either vehicle or Compound 3 (50 nM, 500 nM, 5 μM) is added to the wells 1 h before U 46619 at different concentrations (0.1 nM to 10 μM) and incubated for another 48 h. All experiments are repeated 3-5 times for each experimental condition.
Cell proliferation is evaluated using WST-1 reagent according to the manufacturer's instructions. In brief, after replacement of phenol red containing media by 200 μL transparent serum-supplemented DMEM, 10 μL of diluted WST-1 reagent is added to each well at the end of the 48 h incubation period. After 1 h incubation at 37° C., the absorbance of the formazan dye formed is measured at 440 nm using a microplate reader.
All results are expressed as mean±SE. Statistically significant differences are determined by a one-way analysis of variances, followed by Holm-Sidak post hoc test, for multiple comparisons, using Sigma Stat software. A P value of less than 0.05 is considered significant.

The mark [3] stands for this setting: from 100 nM, not increased at 300 nM and 600 nM.

For `CC(C)(C)N.O=C(O)CC/C=C\C[C@@H]1CO[C@H](c2ccccc2Cl)O[C@@H]1c1ccccc1O` [Compound 3, tert-butylammonium (Z)-6-((2S,4S,5R)-2-(2-chlorophenyl)-4-(2-hydroxyphenyl)-1,3-dioxan-5-yl)hex-4-enoate], in data set [1] (10 nM), the “ICAM-1 mRNA expression induced by TNFα” value is on record as “no effect” and the “PTX3 mRNA expression induced by TNFα” value is recorded as “no effect”. In data set [1] (setting [3]), the “ICAM-1 mRNA expression induced by TNFα” value is “significant decrease” and the “PTX3 mRNA expression induced by TNFα” value was “significant decrease”. Besides, the “mRNA expression of all genes of interest (COX-2, IL-6, IL-8, ICAM-1, VCAM-1, PTX3, MCP-1)” value in data set [1] (Compound 3 at the highest concentration, without TNFα) was “no effect”. For the same compound, the “induction of apoptosis (PARP cleavage) by the compound itself” value in the data set on PARP cleavage in HUVEC (HUVEC 6 h, without TNFα) was “does not induce apoptosis”. In the data set with PARP cleavage in HUVEC (HUVEC, TNFα 6 h, western blot), the “PARP cleavage induced by TNFα” value is “does not decrease”. The “SMC proliferation induced by U46619” value in data set [2] was “significantly and concentration-dependently inhibits”.
